Reference: PMC7811981 (European Journal of Drug Metabolism and Pharmacokinetics, 2020)
Where two headings read alike, the source gives them in different places.

What was measured:
[1] = tested on: P-glycoprotein (P-gp); conditions: cited from earlier work
[2] = phase I studies; cited from earlier work
[3] = Safety and tolerability assessments; assay type: in vivo, healthy adults (human); conditions: for Safety and tolerability: healthy adults
[4] = assay type: in vivo, healthy adults (human); conditions: for AUC(0-inf) / Cmax / Tmax / half-life / AUC(0-t): human, plasma; for AUC(0-t): Period 2: omadacycline with verapamil, linear mixed-effect model
[5] = tested on: P-gp; assay type: in vivo, healthy adults (human); conditions: human, not told, po
[6] = period 2, single oral 240 mg verapamil ER; data not shown
[7] = Period 2/Period 1 (with verapamil / alone)

Question: For `CN(C)c1cc(CNCC(C)(C)C)c(O)c2c1C[C@H]1C[C@H]3[C@H](N(C)C)C(O)=C(C(N)=O)C(=O)[C@@]3(O)C(O)=C1C2=O` [Omadacycline], which P-gp interaction ([1]; in vitro studies) is on record?
Answer: Its P-gp interaction is “substrate, but not as an inhibitor”.

Question: And the “Propensity to permeate across the gastrointestinal (GI) tract” value ([1]; in vitro studies)?
Answer: The value was “low propensity to permeate”.

Question: What about the P-gp interaction ([1]; in vitro transporter studies in CaCo cells) of the same molecule?
Answer: The P-gp interaction was “substrate of P-gp (but not an inhibitor or inducer)”.

Question: What about the “Exposure of 300 mg oral dose versus 100 mg IV dose” value [2] of the same molecule?
Answer: Its value is “comparable exposure”.

Question: And the “Clinical laboratory test results, vital sign measurements, physical examination findings, 12-lead ECG results” value ([3]; omadacycline alone and with verapamil ER)?
Answer: Its value is “no clinically relevant findings”.

Question: And the Safety and tolerability ([3]; single oral 300 mg omadacycline plus 240 mg verapamil ER)?
Answer: The Safety and tolerability was “safe and well tolerated”.

Question: What about the Safety and tolerability ([3]; single oral dose 300 mg omadacycline alone) of the same molecule?
Answer: Its Safety and tolerability is “safe and well tolerated”.

Question: What about the “λz terminal phase rate constant, arithmetic mean (arithmetic coefficient of variation)” value ([4]; Period 1: omadacycline alone, 300 mg oral, N = 12) of the same molecule?
Answer: Its value is 0.1 (11.2) l/h.

Question: And the “AUC0–24, ratio of geometric LS mean” value [4, 7]?
Answer: Its value is 118.5%.

Question: What about the “AUC0–inf, ratio of geometric LS mean” value [4, 7] of the same molecule?
Answer: The value was 124.6%.

Question: And the “AUC0–t, ratio of geometric LS mean” value [4, 7]?
Answer: The value was 118.6%.

Question: What about the “Cmax, ratio of geometric LS mean” value [4, 7] of the same molecule?
Answer: Its value is 113.6%.

Question: And the “λz terminal phase rate constant, arithmetic mean (arithmetic coefficient of variation)” value ([4]; Period 2: omadacycline with verapamil ER 240 mg, N = 10)?
Answer: The value was 0.05 (10.7) l/h.

Question: What about the “Increase in systemic exposure to omadacycline (AUC0–24, AUC0–t, AUC0–inf, Cmax)” value ([4]; after single oral 240 mg verapamil ER compared with omadacycline alone) of the same molecule?
Answer: Its value is 14–25%.

Question: What about the “Plasma concentrations measurable up to (last sampling time)” value ([4]; both treatment periods, all instances) of the same molecule?
Answer: The value was 24 h.

Question: What about the “Time postdose within which Cmax was attained (visual inspection)” value ([4]; both treatment periods, mean plasma concentration-time profiles) of the same molecule?
Answer: Its value is no more than 3 h.

Question: What about the AUC(0-inf) ([4]; oral) of the same molecule?
Answer: The AUC(0-inf) was 10800 ng·h/mL.

Question: What about the Cmax ([4]; oral) of the same molecule?
Answer: Its Cmax is 607 ng/mL.

Question: What about the AUC(0-inf) ([4]; oral, 240 mg) of the same molecule?
Answer: The AUC(0-inf) was 10800 ng·h/mL.

Question: What about the Cmax ([4]; oral, 240 mg) of the same molecule?
Answer: Its Cmax is 596 ng/mL.

Question: And the Tmax ([4]; oral, 240 mg)?
Answer: Its Tmax is 2.8 h.

Question: And the half-life ([4]; oral, 240 mg)?
Answer: Its half-life is 14 h.

Question: And the AUC(0-inf) ([4]; oral, 300 mg)?
Answer: The AUC(0-inf) was 8690 ng·h/mL.

Question: What about the Cmax ([4]; oral, 300 mg) of the same molecule?
Answer: Its Cmax is 534 ng/mL.

Question: What about the AUC(0-t) ([4]; oral, AUC0–24, geometric LS mean, N = 10) of the same molecule?
Answer: Its AUC(0-t) is 7340 ng·h/mL.

Question: What about the AUC(0-t) ([4]; oral, AUC0–t, geometric LS mean, N = 10) of the same molecule?
Answer: The AUC(0-t) was 7340 ng·h/mL.

Question: And the AUC(0-inf) ([4]; po, 300 mg)?
Answer: Its AUC(0-inf) is 8690 ng·h/mL.

Question: And the Cmax ([4]; po, 300 mg)?
Answer: The Cmax was 534 ng/mL.

Question: What about the Tmax ([4]; po, 300 mg) of the same molecule?
Answer: The Tmax was 2.8 h.

Question: And the half-life ([4]; po, 300 mg)?
Answer: Its half-life is 12.7 h.

Question: And the “AUC measures (AUC0–24, AUC0–t, AUC0–inf) higher than omadacycline alone” value ([4]; period 2 (after verapamil) vs period 1)?
Answer: Its value is 18–25%.

Question: And the “Increase in geometric mean of AUC0–inf” value ([4]; verapamil dosing compared with omadacycline alone)?
Answer: The value was 18–25%.

Question: What about the “Increase in bioavailability by inhibition of P-gp (as much as)” value ([4]; with verapamil, relative increase) of the same molecule?
Answer: The value was no more than 25.0%.

Question: And the bioavailability [5]?
Answer: Its bioavailability is roughly 43.1%.

Question: For `COc1ccc(CCN(C)CCCC(C#N)(c2ccc(OC)c(OC)c2)C(C)C)cc1OC` (centres unmarked) [verapamil], which “Plasma concentrations measurable from 2 h after administration up to (last sampling time)” value [6] is on record?
Answer: The value was 24 h.
